Test results as given in article PMC12040169 (PLOS Biology, 2025).

Test: in vitro
Details: human, hela cells, % viability

| SMILES | viability at 28.5 h, 10 µM [%] |
| --- | --- |
| CCN(CC)C(=O)c1ccc(-n2ccnc2)c(-n2cccc2)c1 [CBK285371] | 86.3 |
| CC1CC(C)CN(C(=O)c2ccc(-n3ccnc3)c(-n3cccc3)c2)C1 (stereo not shown) [CBK285372] | 101 |
| Cn1nccc1C(=O)NC1CCN(CC2(c3ccccc3)CC2)CC1 [CBK285373] | 106 |
| COc1ccc(C2(CN3CCC(NC(=O)C(C)C)CC3)CC2)cc1 [CBK285374] | 104 |
| OC1(c2cccnc2F)CCN(Cc2cc(F)cc(F)c2)CC1 [CBK285375] | 81.5 |
| O=C(NC1CC2(CCOCC2)Oc2ccccc21)c1cccs1 (stereo not shown) [CBK285377] | 85.6 |
| O=C(NC1CC2(CCOCC2)Oc2ccccc21)c1ccco1 (stereo not shown) [CBK285378] | 98 |
| COc1ccc(-c2cc3cccn(CC(=O)N(C)C)c-3n2)cc1 [CBK285382] | 105 |
| O=C(Cn1c(-c2ccc(F)cc2)cc2cccnc21)N1CCOCC1 [CBK285383] | 94.8 |
| O=C(Cn1c(-c2ccc(F)cc2)cc2cccnc21)N1CCCC1 [CBK285384] | 102 |
| CCN1CCN(Cc2c(C3CCCC3)[nH]c3ncccc23)CC1 [CBK285386] | 97 |
| COCC(=O)NC1CCN(CC2(c3ccc(F)cc3)CCCC2)CC1 [CBK285387] | 95.5 |
| CCC(C)NC(=O)Cn1c(C2CCOCC2)cc2cccnc21 (stereo not shown) [CBK285390] | 104 |
| Cn1nccc1C(=O)NC(Cc1ccsc1)c1cccnc1 (stereo not shown) [CBK285394] | 98.6 |
| O=C(CCc1ccno1)NC(Cc1ccsc1)c1cccnc1 (stereo not shown) [CBK285395] | 97.3 |
| O=C(Cn1cccn1)NC(Cc1ccsc1)c1cccnc1 (stereo not shown) [CBK285396] | 97 |
| O=C(c1nc2ccccc2s1)C1CCNCC1 [CBK285397] | 103 |
| C=Cn1cc(CN2CCCC(O)(c3ccc(F)cc3)CC2)c(C)n1 (stereo not shown) [CBK285398] | 106 |
| COc1ccc(CN[C@@H]2CCC[C@H]2Cc2cc(C)no2)cc1 [CBK285401] | 94.4 |

| SMILES | viability at 28.5 h, 10 µM [%] |
| --- | --- |
| Cc1cc(C[C@@H]2COC[C@H]2NCc2ccc(Cl)cc2)on1 [CBK285402] | 93.3 |
| Cc1cc(C2CCCCCN2C(=O)c2cc(C3CC3)on2)on1 (stereo not shown) [CBK285414] | 90.1 |
| Fc1ccc([C@@H]2CN(Cc3ccccn3)C[C@H]2c2cc[nH]n2)cc1 [CBK285416] | 104 |
| FC(F)c1cc([C@@H]2CN(CC3CCOC3)C[C@H]2c2ccccc2)n[nH]1 (stereo partly shown) [CBK285430] | 98.5 |
| C[C@@H]1C[C@H](C(F)(F)F)n2nc(C3CCCN3C(=O)C3CC3)cc2N1 (stereo partly shown) [CBK285432] | 90.6 |
| COC(=O)Cn1cc(CN2CC3CCCN3C[C@H]2C)c2ccccc21 (stereo partly shown) [CBK285436] | 92.2 |
| Cc1cc(C2CCCCCN2C(=O)c2cccc(F)c2)on1 (stereo not shown) [CBK285448] | 96.8 |
| CC(=O)N1CCC(c2nc(C3CCCC3)no2)C1 (stereo not shown) [CBK285452] | 104 |
| Cc1cc(C[C@@H]2CCC[C@H]2NCc2c(C)nn(C(C)C)c2C)on1 [CBK285453] | 98.3 |
| CCCC(=O)N1CCC(c2nc(C3CCCC3)no2)C1 (stereo not shown) [CBK285457] | 106 |
| CCC(=O)N1CCC(c2nc(C3CCCC3)no2)C1 (stereo not shown) [CBK285458] | 95.3 |
| CC(=O)Nc1ccc(CN[C@@H]2CCC[C@H]2Cc2cc(C)no2)cc1 [CBK285459] | 102 |
| Cc1cc(C[C@@H]2COC[C@H]2NCc2ccc(C(F)(F)F)cc2)on1 [CBK285463] | 107 |
| COCC(=O)N1c2ccccc2CC[C@@H]1C(=O)OC [CBK285472] | 103 |
| COc1ccc(C2CCN(C(=O)C3CCCO3)CC2)cc1 (stereo not shown) [CBK285473] | 102 |
| COC(=O)[C@H]1CCc2ccccc2N1C(=O)C(C)C [CBK285474] | 100 |
| CCN(CC)C(=O)CN1CCC(c2ccc(F)cc2)CC1 [CBK285475] | 108 |
| COc1ccc(C2(C(=O)N3CCC(c4ccncc4)CC3)CC2)cc1 [CBK285476] | 111 |
